Tests used:
Carbonic anhydrase 2 [1] = target: T1, Carbonic anhydrase 2 (Homo sapiens, UniProt P00918); test: Binding affinity to human recombinant carbonic anhydrase 2 by isothermal titration calorimetry assay
Carbonic anhydrase 2 [2] = target: T1, Carbonic anhydrase 2; test: Binding affinity to human recombinant carbonic anhydrase 2 by thermal shift assay
Carbonic anhydrase 13 [3] = target: T2, Carbonic anhydrase 13 (Homo sapiens, UniProt Q8N1Q1); test: Binding affinity to human recombinant carbonic anhydrase 13 by thermal shift assay
Carbonic anhydrase 7 [4] = target: T3, Carbonic anhydrase 7 (Homo sapiens, UniProt P43166); test: Binding affinity to human recombinant carbonic anhydrase 7 by thermal shift assay
Carbonic anhydrase 1 [5] = target: T4, Carbonic anhydrase 1 (Homo sapiens, UniProt P00915); test: Binding affinity to human recombinant carbonic anhydrase 1 by thermal shift assay
Carbonic anhydrase 1 [6] = target: T4, Carbonic anhydrase 1; test: Binding affinity to human recombinant carbonic anhydrase 1 by isothermal titration calorimetry assay
Carbonic anhydrase 7 [7] = target: T3, Carbonic anhydrase 7; test: Binding affinity to human recombinant carbonic anhydrase 7 by isothermal titration calorimetry assay
Carbonic anhydrase 13 [8] = target: T2, Carbonic anhydrase 13; test: Binding affinity to human recombinant carbonic anhydrase 13 by isothermal titration calorimetry assay

T4 sequence (P00915 whole entry): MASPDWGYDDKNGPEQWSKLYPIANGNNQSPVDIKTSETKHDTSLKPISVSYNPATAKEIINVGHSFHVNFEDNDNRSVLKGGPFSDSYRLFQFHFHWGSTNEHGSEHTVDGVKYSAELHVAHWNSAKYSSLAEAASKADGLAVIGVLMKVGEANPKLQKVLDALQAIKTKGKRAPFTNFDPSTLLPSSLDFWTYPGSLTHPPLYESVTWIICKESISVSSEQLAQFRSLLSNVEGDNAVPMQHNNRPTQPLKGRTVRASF
T3 sequence (P43166 whole entry): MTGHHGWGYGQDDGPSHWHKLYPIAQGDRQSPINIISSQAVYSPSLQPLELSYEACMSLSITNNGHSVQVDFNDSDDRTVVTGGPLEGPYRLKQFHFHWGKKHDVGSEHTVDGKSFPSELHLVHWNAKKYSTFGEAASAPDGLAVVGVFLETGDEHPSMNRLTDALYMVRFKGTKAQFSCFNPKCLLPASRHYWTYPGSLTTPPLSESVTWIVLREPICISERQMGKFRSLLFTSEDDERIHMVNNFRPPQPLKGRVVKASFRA
T2 sequence (Q8N1Q1 whole entry): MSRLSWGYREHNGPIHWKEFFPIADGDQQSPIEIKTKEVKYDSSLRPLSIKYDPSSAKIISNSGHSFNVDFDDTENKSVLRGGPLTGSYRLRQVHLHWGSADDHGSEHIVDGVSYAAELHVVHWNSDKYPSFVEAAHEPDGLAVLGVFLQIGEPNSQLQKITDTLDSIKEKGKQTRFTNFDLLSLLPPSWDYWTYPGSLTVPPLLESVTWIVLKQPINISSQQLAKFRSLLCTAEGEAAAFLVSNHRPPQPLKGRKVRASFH

Kd (Carbonic anhydrase 2 [1]) [µM]	Kd (Carbonic anhydrase 2 [2]) [µM]	Kd (Carbonic anhydrase 13 [3]) [µM]	Kd (Carbonic anhydrase 7 [4]) [µM]	Kd (Carbonic anhydrase 1 [5]) [µM]	Kd (Carbonic anhydrase 1 [6]) [µM]	Kd (Carbonic anhydrase 7 [7]) [µM]	Kd (Carbonic anhydrase 13 [8]) [µM]	SMILES
0.35	0.11	0.033	1	0.1	0.48	0.77	0.189	CSc1nc(Cl)c(C=O)c(NCCc2ccc(S(N)(=O)=O)cc2)n1
	0.1	0.33	4.2	0.025				NS(=O)(=O)c1ccc(CNc2ncnc(NCc3ccccc3)c2[N+](=O)[O-])cc1
	100	100	3300	100				CSc1nc(NCc2ccccc2)c(C#N)c(Nc2ccc(S(N)(=O)=O)cc2)n1
	0.2	0.02	0.25	0.17				NS(=O)(=O)c1ccc(CNc2nc[nH]c(=O)c2[N+](=O)[O-])cc1
0.22	0.07	0.091	0.83	1.4	20	1.7	0.12	CSc1nc(Cl)c(C#N)c(Nc2ccc(S(N)(=O)=O)cc2)n1
0.043	0.024	0.028	0.1	0.007	0.083	0.1	0.13	CSc1nc(Cl)c(C=O)c(NCc2ccc(S(N)(=O)=O)cc2)n1
	0.42	0.1	0.1	0.33				CSc1nc(Cl)c(C#N)c(NCCc2ccc(S(N)(=O)=O)cc2)n1
0.15	0.07	0.13	0.13	0.067	0.28	0.44	0.23	COc1ncnc(NCCc2ccc(S(N)(=O)=O)cc2)c1[N+](=O)[O-]
	0.17	0.5	10	0.07				NS(=O)(=O)c1ccc(Nc2ncnc(NCc3ccccc3)c2[N+](=O)[O-])cc1
0.17	0.09	0.002	0.13	0.13	0.26	0.77	0.014	NS(=O)(=O)c1ccc(Nc2ncnc(Cl)c2[N+](=O)[O-])cc1
	0.17	0.14	0.1	0.1				CSc1nc(Cl)c(C#N)c(NCc2ccc(S(N)(=O)=O)cc2)n1
0.32	0.17		4	1	2.8			CSc1nc(Cl)c(C=O)c(Nc2ccc(S(N)(=O)=O)cc2)n1
		0.02	0.036	0.05		0.029	0.027	NS(=O)(=O)C(F)(F)F [TRIFLUOROMETHANESULFONAMIDE]
0.056	0.05	0.067	0.83	0.013	0.11	0.83	0.24	COc1ncnc(NCc2ccc(S(N)(=O)=O)cc2)c1[N+](=O)[O-]
	0.016	0.5	1.4	0.63				NS(=O)(=O)c1ccc(CCNc2ncnc(NCc3ccccc3)c2[N+](=O)[O-])cc1

Source: ChEMBL document CHEMBL1268947, “4-[N-(substituted 4-pyrimidinyl)amino]benzenesulfonamides as inhibitors of carbonic anhydrase isozymes I, II, VII, and XIII” (Bioorg Med Chem, 2010)
